# Source: patent US20250144067A1, “PERSONALIZED STARVATION THERAPY FOR CANCER” (Faeth Therapeutics, Inc., priority 2021, published 2025)
# Tested on: NCI-H292 lung cancer cells
# Test: FDA drug screening, complete media vs cholesterol-free media with simvastatin (TABLE 2)
# Assay type: cell-based, human
# Conditions: not given
Substance,Cholesterol-free media + simvastatin (0.04 μM),Complete Media,Difference
Guanabenz (Acetate),1.185,0.9697,−0.22
Guanethidine (sulfate),1.914,1.674,−0.24
Leuprolide (Acetate),1.032,1.087,0.06
Levamlodipine besylate,1.066,0.9372,−0.13

# Same assay, conditions: NCI-H292 cells, FDA drug library screen, cholesterol-free media with simvastatin 0.04 μM
row,Substance,Cholesterol-free media + simvastatin (0.04 μM)
1,Gemifloxacin (mesylate),0.9496
2,Ifenprodil (tartrate),0.4918
3,Imatinib (Mesylate),1.089
4,Indacaterol (maleate),1.032
5,Isoconazole (nitrate),0.3001
6,Kanamycin (sulfate),1.825
7,Lasofoxifene (Tartrate),0.6494
8,Lefamulin (acetate),1.429
9,Masitinib (mesylate),1.086
10,Medroxyprogesterone,0.8858

# Same assay, conditions: NCI-H292 cells, FDA drug library screen, complete media
row,Substance,Complete Media
1,Gemifloxacin (mesylate),1.098
2,Heparin (sodium salt) (MW 15 kDa),1.339
3,Imatinib (Mesylate),0.9411
4,Indacaterol (maleate),0.9157
5,Isoconazole (nitrate),0.7337
6,Kanamycin (sulfate),1.703
7,Lasofoxifene (Tartrate),0.9428
8,Lefamulin (acetate),1.575
9,Masitinib (mesylate),1.002
10,Medroxyprogesterone,1.173

# Same assay, conditions: NCI-H292 cells, FDA library drug in cholesterol-free media with simvastatin 0.04 μM
row,Substance,Cholesterol-free media + simvastatin (0.04 μM)
1,Gilteritinib hemifumarate,0.9393
2,Gluconate (Calcium),1.134
3,Hyaluronidase,1.288
4,Ketotifen (fumarate),1.876

# Same assay, conditions: NCI-H292 cells, FDA library drug in complete media
row,Substance,Complete Media
1,Gilteritinib hemifumarate,0.4057
2,Gluconate (Calcium),0.8004
3,Hyaluronidase,1.022
4,Ketotifen (fumarate),1.552

# Same assay, conditions: NCI-H292 cells, cholesterol-free media with simvastatin 0.04 μM; FDA drug library screen (TABLE 2)
row,Substance,Cholesterol-free media + simvastatin (0.04 μM)
1,Gramicidin,0.2157
2,Hemin,1.178
3,Ibutilide (fumarate),1.045
4,Indinavir (sulfate),0.8636
5,Lapatinib (ditosylate),0.4889
6,Lenvatinib (mesylate),1.17
7,Lumateperone (tosylate),1.37
8,Merbromin,1.023

# Same assay, conditions: NCI-H292 cells, cholesterol-free media with simvastatin 0.04 μM; cell growth value in FDA drug screen
row,Substance,Cholesterol-free media + simvastatin (0.04 μM)
1,Gentamicin (sulfate),0.8679
2,Hydrocortisone hemisuccinate,0.9423
3,Loxapine (succinate),1.274
4,Mafenide (Acetate),0.8255

# Same assay, conditions: NCI-H292 cells, complete media; FDA drug library screen (TABLE 2)
row,Substance,Complete Media
1,Gramicidin,0.2144
2,Hemin,1.151
3,Lapatinib (ditosylate),0.4758
4,Lenvatinib (mesylate),1.154
5,Lumateperone (tosylate),1.357
6,Merbromin,1.006

# Same assay, conditions: NCI-H292 cells, complete media; […]
row,Substance,Complete Media
1,Heparin (Lithium salt),1.136

# Same assay, conditions: NCI-H292 cells, complete media; cell growth value in FDA drug screen
row,Substance,Complete Media
1,Gentamicin (sulfate),0.9575
2,Hydrocortisone hemisuccinate,1.019
3,Loxapine (succinate),1.361
4,Mafenide (Acetate),0.8982

# Same assay, conditions: NCI-H292 cells, drug in cholesterol-free media with simvastatin 0.04 μM
row,Substance,Cholesterol-free media + simvastatin (0.04 μM)
1,Goserelin (acetate),1.497
2,Icatibant (acetate),1.025
3,Inulin,1.179
4,Ketanserin (tartrate),1.267
5,Lanreotide (acetate),1.388

# Same assay, conditions: NCI-H292 cells, drug in complete media
row,Substance,Complete Media
1,Goserelin (acetate),1.249
2,Icatibant (acetate),0.7948
3,Inulin,0.9318
4,Lanreotide (acetate),1.218

# Same assay, conditions: complete media minus cholesterol-free media + simvastatin (0.04 μM); >0 enhanced anti-cancer activity, about 0 neutral, <0 antagonist
row,Substance,Difference
1,Ibutilide (fumarate),−0.02
2,Indinavir (sulfate),0.01
3,Lapatinib (ditosylate),−0.01
4,Lenvatinib (mesylate),−0.02

# Same assay, conditions: complete media minus cholesterol-free media + simvastatin (0.04 μM); […]
row,Substance,Difference
1,Gramicidin,0.00
2,Hemin,−0.03
3,Lumateperone (tosylate),−0.01
4,Merbromin,−0.02

# Same assay, conditions: complete media minus cholesterol-free media + simvastatin; >0 enhanced anti-cancer activity, about 0 neutral, <0 antagonist
row,Substance,Difference
1,Gemifloxacin (mesylate),0.15
2,Gentamicin (sulfate),0.09
3,Hydrocortisone hemisuccinate,0.08
4,Ifenprodil (tartrate),0.57
5,Loxapine (succinate),0.09
6,Mafenide (Acetate),0.07

# Same assay, conditions: complete media minus cholesterol-free media + simvastatin; […]
row,Substance,Difference
1,Heparin (Lithium salt),0.08
2,Heparin (sodium salt) (MW 15 kDa),0.23
3,Isoconazole (nitrate),0.43
4,Lasofoxifene (Tartrate),0.29
5,Lefamulin (acetate),0.15
6,Maraviroc,0.03
7,Medroxyprogesterone,0.29

# Same assay, conditions: complete media vs cholesterol-free media + simvastatin (0.04 μM); >0 enhanced anti-cancer activity, about 0 neutral, <0 antagonist
row,Substance,Difference
1,Imatinib (Mesylate),−0.15
2,Iproniazid (phosphate),−0.09
3,Ketanserin (tartrate),−0.22
4,Masitinib (mesylate),−0.08

# Same assay, conditions: complete media vs cholesterol-free media + simvastatin (0.04 μM); […]
row,Substance,Difference
1,Gilteritinib hemifumarate,−0.53
2,Gluconate (Calcium),−0.33
3,Goserelin (acetate),−0.25
4,Hyaluronidase,−0.27
5,Icatibant (acetate),−0.23
6,Indacaterol (maleate),−0.12
7,Inulin,−0.25
8,Kanamycin (sulfate),−0.12
9,Ketotifen (fumarate),−0.32
10,Lanreotide (acetate),−0.17

# Tested on: NCI-H292 lung cancer cells
# Test: FDA drug screening, complete media vs cholesterol-free media without statin (TABLE 1)
# Assay type: cell-based, human
# Conditions: not given
Substance,Cholesterol-free,Complete,Difference
Guanabenz (Acetate),0.8753,0.6073,−0.27
Guanethidine (sulfate),1.619,1.336,−0.28
Leuprolide (Acetate),1,0.6877,−0.31
Levamlodipine besylate,1.261,–,−0.22

# Same assay, conditions: Complete minus Cholesterol-free; >0 enhanced anti-cancer activity, about 0 neutral, <0 antagonist
row,Substance,Difference
1,Gemifloxacin (mesylate),−0.22
2,Gentamicin (sulfate),0.07
3,Ifenprodil (tartrate),0.02
4,Iproniazid (phosphate),−0.26
5,Ketanserin (tartrate),0.03

# Same assay, conditions: Complete minus Cholesterol-free; […]
row,Substance,Difference
1,Gluconate (Calcium),−0.74
2,Goserelin (acetate),−0.26
3,Gramicidin,−0.14
4,Hemin,−0.04
5,Heparin (Lithium salt),−0.22
6,Heparin (sodium salt) (MW 15 kDa),−0.29
7,Hyaluronidase,−0.05
8,Indacaterol (maleate),−0.20
9,Inulin,−0.02
10,Isoconazole (nitrate),−0.15
11,Ketotifen (fumarate),−0.71
12,Lanreotide (acetate),−0.24
13,Lefamulin (acetate),−0.23
14,Lumateperone (tosylate),−0.84
15,Medroxyprogesterone,−0.03

# Same assay, conditions: Complete minus Cholesterol-free; greater than 0 enhanced anti-cancer activity, about 0 neutral, below 0 antagonist
row,Substance,Difference
1,Lapatinib (ditosylate),−0.15
2,Lenvatinib (mesylate),−0.10
3,Mafenide (Acetate),−0.16
4,Masitinib (mesylate),−0.14

# Same assay, conditions: Complete minus Cholesterol-free; greater than 0 enhanced anti-cancer activity, about 0 neutral, below 0 antagonists
row,Substance,Difference
1,Hydrocortisone hemisuccinate,−0.57
2,Ibutilide (fumarate),−1.13
3,Indinavir (sulfate),−0.65
4,Loxapine (succinate),−0.72

# Same assay, conditions: NCI-H292 cells in cholesterol-free media without statin
row,Substance,Cholesterol-free
1,Ibutilide (fumarate),1.969
2,Indinavir (sulfate),1.599
3,Ketotifen (fumarate),1.545
4,Loxapine (succinate),1.602
5,Lumateperone (tosylate),1.615

# Same assay, conditions: NCI-H292 cells in complete media
row,Substance,Complete
1,Gluconate (Calcium),0.8786
2,Hydrocortisone hemisuccinate,0.5102
3,Ibutilide (fumarate),0.8391
4,Indinavir (sulfate),0.946
5,Ketotifen (fumarate),0.8394
6,Loxapine (succinate),0.8776

# Same assay, conditions: NCI-H292 cells, FDA drug library screen, cholesterol-free media without statin
row,Substance,Cholesterol-free
1,Gramicidin,0.1906
2,Isoconazole (nitrate),1.53
3,Lapatinib (ditosylate),0.4354
4,Lenvatinib (mesylate),0.845
5,Mafenide (Acetate),1.179
6,Masitinib (mesylate),1.027

# Same assay, conditions: NCI-H292 cells, FDA drug library screen, complete media
row,Substance,Complete
1,Gramicidin,0.04898
2,Isoconazole (nitrate),1.383
3,Lapatinib (ditosylate),0.2847
4,Lenvatinib (mesylate),0.7401
5,Mafenide (Acetate),1.017
6,Masitinib (mesylate),0.8899

# Same assay, conditions: NCI-H292 cells, cholesterol-free media without statin
row,Substance,Cholesterol-free
1,Gemifloxacin (mesylate),1.118
2,Goserelin (acetate),1.173
3,Heparin (Lithium salt),1.174
4,Heparin (sodium salt) (MW 15 kDa),1.451
5,Icatibant (acetate),1.121
6,Indacaterol (maleate),1.314
7,Kanamycin (sulfate),1.851
8,Lanreotide (acetate),1.287
9,Lasofoxifene (Tartrate),1.19
10,Lefamulin (acetate),1.096

# Same assay, conditions: NCI-H292 cells, cholesterol-free media without statin, FDA drug library screen
row,Substance,Cholesterol-free
1,Gentamicin (sulfate),0.9104
2,Gilteritinib hemifumarate,0.3721
3,Hemin,0.9968
4,Hyaluronidase,0.9036
5,Ifenprodil (tartrate),0.8921
6,Imatinib (Mesylate),0.5677
7,Inulin,0.9221
8,Ketanserin (tartrate),0.9853
9,Maraviroc,0.6337
10,Merbromin,1.294

# Same assay, conditions: NCI-H292 cells, complete media
row,Substance,Complete
1,Gemifloxacin (mesylate),0.9009
2,Goserelin (acetate),0.9084
3,Heparin (Lithium salt),0.9566
4,Heparin (sodium salt) (MW 15 kDa),1.156
5,Icatibant (acetate),0.7693
6,Indacaterol (maleate),1.116
7,Iproniazid (phosphate),0.8468
8,Kanamycin (sulfate),1.486
9,Lanreotide (acetate),1.045
10,Lasofoxifene (Tartrate),0.7569
11,Lefamulin (acetate),0.8619

# Same assay, conditions: NCI-H292 cells, complete media, FDA drug library screen
row,Substance,Complete
1,Gentamicin (sulfate),0.9799
2,Gilteritinib hemifumarate,0.7198
3,Hemin,0.96
4,Hyaluronidase,0.8508
5,Ifenprodil (tartrate),0.9115
6,Imatinib (Mesylate),1.017
7,Inulin,0.9055
8,Ketanserin (tartrate),1.019
9,Maraviroc,0.8933
10,Medroxyprogesterone,0.9783
11,Merbromin,1.544

# Same assay, conditions: complete vs cholesterol-free media; >0 enhanced anti-cancer activity, about 0 neutral, <0 antagonist
row,Substance,Difference
1,Imatinib (Mesylate),0.45

# Same assay, conditions: complete vs cholesterol-free media; […]
row,Substance,Difference
1,Gilteritinib hemifumarate,0.35
2,Icatibant (acetate),−0.35
3,Kanamycin (sulfate),−0.36
4,Lasofoxifene (Tartrate),−0.43
5,Maraviroc,0.26
6,Merbromin,0.25
